Results: patent US20030162803A1, “Anhydrovinblastine for the treatment of cancer” (priority 1997, published 2003)

Columns and labels:
[1] = test system: H460 human non-small cell lung carcinoma, C-4 human cervical carcinoma, K562 human leukaemia, and the A431 human epidermoid cell lines; assay: MTT cytotoxicity assay, 72 hours, panel of human cancer cell lines; assay type: cell-based
[2] = test system: H460 human non-small cell lung carcinoma tumor xenograph; assay: H460 SC tumor mouse model; assay type: in vivo, SCID/Rag-2 mice
Method: Cultures of H460 Human Lung cells are available from the British Columbia Cancer Research Center. Cells were injected subcutaneously twice into mature male Rag-2 mice (24 mice, 1×10^6 cells/mouse) using a 26-gauge needle. The H460 cells were suspended in a Hank's Balanced Salt Solution without calcium. Tumors were allowed to form in the mice for 11 days.
When the tumors were well established, four separate groups of mice, were selected for administration of the three test articles (i.e. one group for each test article of AHVB bisulphate, AHVB ditartrate, and Navelbine™) and one control.
AHVB bisulphate and ditartrate, and Navelbine™ were solubilized using 5% dextrose saturated with Argon. Both of these articles were at a concentration of 20 mg/ml. Any dose dilutions were made with 5% dextrose.
The articles were administered intravenously on the days 1, 5 and 9, as were controls of 5% dextrose. Body weights and tumor measurements with calipers were taken every day for the first 10 days and then every other day for the remainder of the study.
Following administration of the test articles, the animals; weight and tumor size (using calipers) were determined daily for the first 10 days and then every other day for the remainder of the study. If the tumor size reached 1 gram in weight or the tumor started to ulcerate, the animals were sacrificed (by carbon dioxide inhalation) and subjected to necropsy. Animals were also monitored at least daily for signs of stress for the full length of the study. Animals manifesting severe symptoms of stress (rapid weight loss, panting, hunched posture, scruffy coat) were also sacrificed and a necropsy performed.
The results of the efficacy studies are given in FIG. 9 and present averages of data from 6 or fewer animals. […] Each tumor was measured in length and width and the volume of each tumor was calculated by […]. […] The calculation was performed each day the tumors were measured. The standard deviation of the mean and the standard error of the mean were calculated with the error bars appearing in the graph in FIG. 9. […]

[3] = IV 10 mg/kg and 20 mg/kg on days 1, 5 and 9

SMILES: CCC1=C[C@H]2CN(CCc3c([nH]c4ccccc34)[C@@](C(=O)OC)(c3cc4c(cc3OC)N(C)[C@H]3[C@@](O)(C(=O)OC)[C@H](OC(C)=O)[C@]5(CC)C=CCN6CC[C@]43[C@@H]65)C2)C1 [AHVB, 3′,4′-anhydrovinblastine]
- IC50 ([1]; drug exposure time 72 hours, range over H460, C-4, K562, A431): 20 to 24 nM
- fold less active than Navelbine in vitro ([1]; same cell lines): approximately 10 fold
- toxicity compared with Navelbine [2, 3]: less toxic than Navelbine™
- tumor growth inhibition compared with Navelbine [2, 3]: greater tumor growth inhibition
- activity compared with vincristine and vinorelbine ([2]; human tumor xenografts of NSCLC, equitoxic doses): superior activity to that of both vincristine and vinorelbine
